Laboratory results reported in patent US20120149718A1, “Amido Compounds” (priority 2010, published 2012).

Each molecule was assayed against T1, human P2X7 (Homo sapiens, UniProt Q99572) (assay: Intracellular Calcium Flux (FLIPR) Assay). Settings: 1321N1 cells stably expressing full length human P2X7; agonist 100 μM BzATP; fluo-3 calcium flux; read-out: FLIPR pIC50 hP2X7-1321n1 (converted).
T1 construct: 1321N1 cells stably expressing the full length human P2X7 gene (1321N1-hP2X7)
T1 sequence (Q99572 1-595): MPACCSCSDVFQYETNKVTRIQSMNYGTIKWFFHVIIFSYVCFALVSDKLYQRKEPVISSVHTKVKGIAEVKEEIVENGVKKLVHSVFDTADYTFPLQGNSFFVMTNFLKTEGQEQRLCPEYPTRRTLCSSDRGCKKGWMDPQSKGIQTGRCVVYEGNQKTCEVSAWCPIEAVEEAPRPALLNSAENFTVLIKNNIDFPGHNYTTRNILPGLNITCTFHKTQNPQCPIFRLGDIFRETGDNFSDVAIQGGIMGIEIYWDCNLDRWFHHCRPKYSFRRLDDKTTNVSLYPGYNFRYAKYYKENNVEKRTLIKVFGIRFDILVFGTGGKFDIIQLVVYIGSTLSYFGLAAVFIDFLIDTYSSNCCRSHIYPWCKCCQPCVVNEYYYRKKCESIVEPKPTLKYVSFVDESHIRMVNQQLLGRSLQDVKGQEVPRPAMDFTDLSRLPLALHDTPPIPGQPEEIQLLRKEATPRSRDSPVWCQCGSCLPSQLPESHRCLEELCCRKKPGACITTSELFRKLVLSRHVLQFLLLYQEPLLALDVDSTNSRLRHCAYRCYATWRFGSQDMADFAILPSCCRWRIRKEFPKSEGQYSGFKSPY
Assay type: cell-based
Protocol: Stock solutions of compounds were prepared from powders as a 10 mM DMSO stock solution. These solutions were stored at RT during the two week period of these experiments to prevent freeze-thaw of the DMSO stocks. The DMSO stocks were added to the appropriate assay buffer at a concentration of 10 μM, and then diluted serially to the final concentrations that were tested. No observable precipitate was formed at any time during this process. The aqueous solutions of compounds as well as ATP (Sigma A7699) and BzATP (Sigma B6396) were prepared fresh for each day of experiment.
1321N1 cells stably expressing the full length human P2X7 gene (1321N1-hP2X7) and HEK293 cells stably expressing the full length rat P2X7 gene (HEK293-rP2X7) were obtained from the Roche Cell Culture Facility. 1321N1-hP2X7 cells were grown in Dulbecco's Modified Eagle's Medium (DMEM) high glucose supplemented with 10% FBS and 250 μg/mL G418. HEK293-rP2X7 cells were grown in DMEM/F-12 supplemented with 10% FBS, 1 mM CaCl2, 2 mM MgCl2, 2 mM L-Glutamine and 500 μg/ml G418. Cells were split such that they never became >70% confluent.
On the day prior to the experiment, 1321N1-hP2X7 or HEK293-rP2X7 cells were released into suspension with calcium-free PBS+Versene and washed by centrifugation with calcium-free PBS to remove the Versene. Cells were resuspended in growth medium at a density of 2.5×10^5 cells/mL and seeded into black walled, clear bottom 96 well plates (50,000 cells/well) approximately 18 hr prior to intracellular calcium flux experiments.
On the day of the experiment, plates were washed with FLIPR buffer (calcium- and magnesium-free Hank's Balanced Salt Solution (HBSS) supplemented with 10 mM Hepes, 2.5 mM probenecid and 2 mM calcium chloride) using a BIO-TEK 96 channel plate washer and incubated with […] fluo-3 dye at 37° C. for one hr. The dye was then removed by plate washing and the cells were allowed to equilibrate for 20 min at room temperature with antagonist or vehicle (FLIPR buffer). Agonist (100 μM BzATP final concentration for hP2X7; 5 μM BzATP final concentration or rP2X7) was added online with the FLIPR and fluorescence measurements made at 1 sec intervals for 60 sec followed by 3 sec intervals for a further 4 min (5 min total). A final addition of 5 μM ionomycin was made and the maximal BzATP-evoked fluorescence normalized to the maximal ionomycin-evoked fluorescence.

SMILES | IC50 [µM]
CN(Cc1ccccc1)Cc1cnc(NC(=O)C(Cc2ccc(F)cc2)c2ccc(S(C)(=O)=O)cc2)cn1 (stereo not drawn) [Compound I-24, N-{5-[(Benzyl-methyl-amino)-methyl]-pyrazin-2-yl}-3-(4-fluoro-phenyl)-2-(4-methanesulfonyl-phenyl)-propionamide] | 1.05
O=C(Nc1nc2ccccc2o1)C(Cc1ccc(F)cc1)c1ccc(F)cc1 (stereo not drawn) [Compound I-28, N-Benzooxazol-2-yl-2,3-bis-(4-fluoro-phenyl)-propionamide] | 0.437
Cc1cccc2nc(NC(=O)C(Cc3ccc(F)cc3)c3ccc(S(C)(=O)=O)cc3)oc12 (stereo not drawn) [Compound I-42, 3-(4-Fluoro-phenyl)-2-(4-methanesulfonyl-phenyl)-N-(7-methyl-benzooxazol-2-yl)-propionamide] | 0.0288
CS(=O)(=O)c1ccc(C(Cc2ccc(F)cc2)C(=O)Nc2cnc(CO)cn2)cc1 (stereo not drawn) [Compound I-16, 3-(4-Fluoro-phenyl)-N-(5-hydroxymethyl-pyrazin-2-yl)-2-(4-methanesulfonyl-phenyl)-propionamide] | 0.117
CS(=O)(=O)c1ccc(C(Cc2ccc(F)cc2)C(=O)Nc2cnc(Br)cn2)cc1 (stereo not drawn) [Compound I-13, N-(5-Bromo-pyrazin-2-yl)-3-(4-fluoro-phenyl)-2-(4-methanesulfonyl-phenyl)-propionamide] | 0.813
Cc1ccccc1C[C@H](C(=O)Nc1nc2ccccc2o1)c1ccc(S(C)(=O)=O)cc1 [Compound I-10, (S)—N-Benzooxazol-2-yl-2-(4-methanesulfonyl-phenyl)-3-o-tolyl-propionamide] | 0.427
CS(=O)(=O)c1ccc(C(Cc2ccc(F)cc2)C(=O)Nc2nc3ccc(Cl)cc3o2)cc1 (stereo not drawn) [Compound I-38, N-(6-Chloro-benzooxazol-2-yl)-3-(4-fluoro-phenyl)-2-(4-methanesulfonyl-phenyl)-propionamide] | 0.316
Cc1ccc2nc(NC(=O)C(Cc3ccc(F)cc3)c3ccc(S(C)(=O)=O)cc3)oc2c1 (stereo not drawn) [Compound I-36, 3-(4-Fluoro-phenyl)-2-(4-methanesulfonyl-phenyl)-N-(6-methyl-benzooxazol-2-yl)-propionamide] | 0.191
Cc1cc(S(C)(=O)=O)ccc1C(Cc1ccc(F)cc1)C(=O)Nc1nc2ccccc2o1 (stereo not drawn) [Compound I-27, N-Benzooxazol-2-yl-3-(4-fluoro-phenyl)-2-(4-methanesulfonyl-2-methyl-phenyl)-propionamide] | 0.204
COc1ccc2oc(NC(=O)C(Cc3ccc(F)cc3)c3ccc(S(C)(=O)=O)cc3)nc2c1 (stereo not drawn) [Compound I-44, 3-(4-Fluoro-phenyl)-2-(4-methanesulfonyl-phenyl)-N-(5-methoxy-benzooxazol-2-yl)-propionamide] | 0.0759
Cc1cccc2oc(NC(=O)C(Cc3ccc(F)cc3)c3ccc(S(C)(=O)=O)cc3)nc12 (stereo not drawn) [Compound I-35, 3-(4-Fluoro-phenyl)-2-(4-methanesulfonyl-phenyl)-N-(4-methyl-benzooxazol-2-yl)-propionamide] | 0.468
CS(=O)(=O)c1ccc(C(Cc2ccc(F)cc2)C(=O)Nc2nc3cc(Cl)ccc3o2)cc1 (stereo not drawn) [Compound I-39, N-(5-Chloro-benzooxazol-2-yl)-3-(4-fluoro-phenyl)-2-(4-methanesulfonyl-phenyl)-propionamide] | 0.126
COC(=O)c1ccc2nc(NC(=O)C(Cc3ccc(F)cc3)c3ccc(S(C)(=O)=O)cc3)oc2c1 (stereo not drawn) [Compound I-45, 2-[3-(4-Fluoro-phenyl)-2-(4-methanesulfonyl-phenyl)-propionylamino]-benzooxazole-6-carboxylic acid methyl ester] | 0.617
CS(=O)(=O)c1ccc(C(Cc2ccc(F)cc2)C(=O)Nc2nc3cc(F)ccc3o2)cc1 (stereo not drawn) [Compound I-46, N-(5-Fluoro-benzooxazol-2-yl)-3-(4-fluoro-phenyl)-2-(4-methanesulfonyl-phenyl)-propionamide] | 0.0447
COCCN(C)Cc1cnc(NC(=O)C(Cc2ccc(F)cc2)c2ccc(S(C)(=O)=O)cc2)cn1 (stereo not drawn) [Compound I-23, 3-(4-Fluoro-phenyl)-2-(4-methanesulfonyl-phenyl)-N-(5-{[(2-methoxy-ethyl)-methyl-amino]-methyl}-pyrazin-2-yl)-propionamide] | 0.646
CS(=O)(=O)c1ccc(C(Cc2ccc(F)cc2)C(=O)Nc2nc3cc(C(F)(F)F)ccc3o2)cc1 (stereo not drawn) [Compound I-41, 3-(4-Fluoro-phenyl)-2-(4-methanesulfonyl-phenyl)-N-(5-trifluoromethyl-benzooxazol-2-yl)-propionamide] | 0.115
CS(=O)(=O)c1ccc(C(Cc2ccc(F)cc2)C(=O)Nc2nc3ccc(F)cc3o2)cc1 (stereo not drawn) [Compound I-40, N-(6-Fluoro-benzooxazol-2-yl)-3-(4-fluoro-phenyl)-2-(4-methanesulfonyl-phenyl)-propionamide] | 0.0389
Cc1cc(C)c2oc(NC(=O)C(Cc3ccc(F)cc3)c3ccc(S(C)(=O)=O)cc3)nc2c1 (stereo not drawn) [Compound I-43, N-(5,7-Dimethyl-benzooxazol-2-yl)-3-(4-fluoro-phenyl)-2-(4-methanesulfonyl-phenyl)-propionamide] | 0.102

Results, then the molecule that gave them:

IC50 [µM] | SMILES
0.17 | CS(=O)(=O)c1ccc(C(Cc2ccc(F)cc2)C(=O)Nc2nc3cc(S(=O)(=O)N4CCCC4)ccc3o2)cc1 (stereo not drawn) [Compound I-47, 3-(4-Fluoro-phenyl)-2-(4-methanesulfonyl-phenyl)-N-[5-(pyrrolidine-1-sulfonyl)-benzooxazol-2-yl]-propionamide]
> 10 | CS(=O)(=O)c1ccc([C@H](Cc2ccc(F)cc2)C(=O)Nc2cnc(CO)cn2)cc1 [Compound I-50b, (S)-3-(4-Fluoro-phenyl)-N-(5-hydroxymethyl-pyrazin-2-yl)-2-(4-methanesulfonyl-phenyl)-propionamide]
0.661 | CS(=O)(=O)c1ccc(C(Cc2ccncc2)C(=O)Nc2nc3ccccc3o2)cc1 (stereo not drawn) [Compound I-55, N-Benzooxazol-2-yl-2-(4-methanesulfonyl-phenyl)-3-pyridin-4-yl-propionamide]
0.38 | CS(=O)(=O)c1ccc([C@@H](Cc2ccc(F)cc2)C(=O)Nc2cnc(CO)cn2)cc1 [Compound I-50a, (R)-3-(4-Fluoro-phenyl)-N-(5-hydroxymethyl-pyrazin-2-yl)-2-(4-methanesulfonyl-phenyl)-propionamide]
0.407 | CS(=O)(=O)c1ccc(CC(C(=O)Nc2nc3ccccc3o2)c2ccc(F)cc2)cc1 (stereo not drawn) [Compound I-53, N-Benzooxazol-2-yl-2-(4-fluoro-phenyl)-3-(4-methanesulfonyl-phenyl)-propionamide]
0.0661 | CS(=O)(=O)c1ccc(C(Cc2ccc(F)cc2)C(=O)Nc2nc3ccncc3o2)cc1 (stereo not drawn) [Compound I-52, 3-(4-Fluoro-phenyl)-2-(4-methanesulfonyl-phenyl)-N-oxazolo[5,4-c]pyridin-2-yl-propionamide]
0.871 | CC(=O)OCc1cnc(NC(=O)C(Cc2ccc(F)cc2)c2ccc(S(C)(=O)=O)cc2)cn1 (stereo not drawn) [Compound I-49, Acetic acid 5-[3-(4-fluoro-phenyl)-2-(4-methanesulfonyl-phenyl)-propionylamino]-pyrazin-2-ylmethyl ester]
0.0309 | O=C(Nc1nc2ccccc2o1)C(Cc1ccc(F)cc1)c1ccncc1 (stereo not drawn) [Compound I-54, N-Benzooxazol-2-yl-3-(4-fluoro-phenyl)-2-pyridin-4-yl-propionamide]
0.295 | CS(=O)(=O)c1ccc(C(Cc2ccc(F)cc2)C(=O)Nc2ncc(-c3ccccc3)o2)cc1 (stereo not drawn) [Compound I-48, 3-(4-Fluoro-phenyl)-2-(4-methanesulfonyl-phenyl)-N-(5-phenyl-oxazol-2-yl)-propionamide]
